These results are taken from US11324720B2, “Antiproliferative DNA polymerase inhibitor” (NEW YORK MEDICAL COLLEGE, priority 2018, dated 2022).

One data set concerns the target T1, Pol δ (Homo sapiens, UniProt P28340).
T1 construct: made in house; host or cells: insect cells (Pol δ); E. coli (PCNA)
Nature of the data set: primer extension assay (25 mer primer/40 mer template). The data set is classed as biochemical. Conditions: 20 μM inhibitor. The source says: Next, we investigated the inhibitory properties of zelpolib in a primer extension assay^17,18 with a template that consists of all four deoxynucleotide that is more reflective of cellular DNA replication processes than the pold(A) template. The substrate consisted of a 25 mer primer hybridized to a 40 mer template. In the presence of PCNA and dNTPs, the primers were extended upon addition of Pol δ and a full extension would generate a 40 mer copy of the template. The primers were labeled at the 5′-end with ^32P, and the products were separated on a sequencing gel for visualization and quantification. […] The idea originated from the fact that most kinase inhibitors compete for binding with ATP. It is conceivable that they might compete with dATP for binding to polymerases. We randomly selected 10 small-molecule-cancer drugs with nine being kinase inhibitors^19 and one parp inhibitor (olaparib)^20. […] In the presence of any other inhibitors, at least 30% of the primers were extended.
Recombinant Pol […] were expressed in insect cells and purified as reported previously^18. […]
Briefly, the standard reaction mixture contained 5 μM dNTP, 5 mM MgCl2, 50 mM Tris-HCl (pH 7.5), 2 mM dithiothreitol, […] BSA, 50 mM NaCl, 20 nM primer/template, 50 nM PCNA, 10 nM Pol δ and variable concentrations of inhibitors. […] Products was visualized on phosphorimager and quantitated using Image-J software. […]

In data set [1] the test system is BxPC-3 cells. Kind of data set: EdU incorporation by laser scanning cytometry. The format is cell-based, human. Particulars: 10 and 20 μM; 1 to 2 hours pre-incubation, then EdU pulse.
Data set [2] concerns BxPC-3 cells. Kind of data set: DNA fiber fluorography dual labeling (IdU/CldU). The format is cell-based, human. The source says: (§1) In our search for Pol δ inhibitors, we focused on the identification of inhibitors that can inhibit Pol δ when it is actively replicating DNA. DNA fiber fluorography with dual labeling technique^24 provides a possibility that we can analyze the effect of zelpolib on ongoing DNA replication at a single molecule level. Both IdU and CldU are halogenated thymidine analogs that can be incorporated into DNA. Subsequent DNA fiber spreading and antibody detection are used to directly visualize the replicated DNA fiber. The incorporation of IdU gives rise to red fibers and CldU produces green fibers with subsequent antibody detection^24. Therefore, in this assay, the cells were first incubated with IdU for 20 minutes in the absence of zelpolib (FIG. 3B) to establish ongoing DNA replication and the basal replication rates of each individual DNA fibers. Subsequently, CldU were added to cell culture either with or without simultaneous addition of zelpolib. DNA replication were allowed for an additional hour. […] In order to be certain that this inhibition was not cell line dependent, we conducted an identical experiment on a triple-negative breast cancer cell line as well. […] The DNA fibers (FIG. 3C) from a single field of view (FIG. 9) were realigned for visual comparison.
(§2) To analyze the effect of zelpolib, DNA fiber fluorography was used with dual labeling technique as reported. Cells were seeded in 6-well plates (Cellstar) and allowed to attach for 24 hours before pulse labeled with 25 μM IdU for 20 min. Subsequently, cells were washed three times with PBS and pulse labeled with 250 μM of CldU (Sigma) for 60 min in the presence or absence of zelpolib. Cell lysis and fiber spreading were conducted according to Schwab & Niedzwiedz. IdU and CldU were detected by primary mouse anti-BrdU antibody (BD biosciences, 1:25) and rat anti-BrdU antibody (Abcam, 1:200) and secondary fluorescent antibodies Alexa anti-mouse 594 (ThermoFisher scientific, 1:625) and Alexa anti-rat 488 (ThermoFisher scientific, 1:200). DNA fibers were imaged on fluorescence microscope and fiber lengths were measured using Image-J software. Statistics were calculated using GraphPad prism software.

The test system of data set [3] is HCC1395 cells. Kind of data set: DNA fiber fluorography dual labeling (IdU/CldU). The data set is classed as cell-based, human. Conditions: all three concentrations, zelpolib added with CldU for 60 min.
From the text: as §1, §2

The test system of data set [4] is HCC1395 cells. Kind of data set: MTT assay with PARP inhibitors with or without zelpolib. The format is cell-based, human. Particulars: 2.5 μM zelpolib, 48 hrs. On the procedure: However, there have been minimal clinical benefits for HR-proficient cancers^37-41. Since zelpolib can inhibit HR, we explored the effect of zelpolib in combination with PARP inhibitors on HR-proficient cancer cells. The hypothesis is that zelpolib will lead to an HR-defect through inhibition of Pol δ and render HR-proficient cells sensitive to PARP inhibition. […] The cells were treated with increasing concentrations of PARP inhibitor Niraparib (FIG. 5B) or Rucaparib (FIG. 5C) in the absence or presence of 2.5 μM zelpolib for 48 hrs. The number of cells were then analyzed by MTT assay.
Human cancer cells (5×10^3-7.5×10^3) were initially seeded in 96-well plates (Cellstar) containing 0.2 ml media per well. After 24 hrs, these cells were treated with variable concentrations drug combinations for 48-72 hrs. Subsequently, 4,5-dimethylthiazol-2-yl-2,5-diphenyltetrazolium bromide (MTT) (20 μl of 5 mg/ml) was added to each well for 3 hrs. Formazan crystals were then dissolved in 150 μl DMSO and optical density was read at 490 nm^25. All experiments were performed in triplicates. Results were analyzed by GraphPad Prism. Data represent mean value±SEM for each concentration of inhibitor combinations.

Each structure is given as a SMILES string.

T1 sequence (P28340 whole entry): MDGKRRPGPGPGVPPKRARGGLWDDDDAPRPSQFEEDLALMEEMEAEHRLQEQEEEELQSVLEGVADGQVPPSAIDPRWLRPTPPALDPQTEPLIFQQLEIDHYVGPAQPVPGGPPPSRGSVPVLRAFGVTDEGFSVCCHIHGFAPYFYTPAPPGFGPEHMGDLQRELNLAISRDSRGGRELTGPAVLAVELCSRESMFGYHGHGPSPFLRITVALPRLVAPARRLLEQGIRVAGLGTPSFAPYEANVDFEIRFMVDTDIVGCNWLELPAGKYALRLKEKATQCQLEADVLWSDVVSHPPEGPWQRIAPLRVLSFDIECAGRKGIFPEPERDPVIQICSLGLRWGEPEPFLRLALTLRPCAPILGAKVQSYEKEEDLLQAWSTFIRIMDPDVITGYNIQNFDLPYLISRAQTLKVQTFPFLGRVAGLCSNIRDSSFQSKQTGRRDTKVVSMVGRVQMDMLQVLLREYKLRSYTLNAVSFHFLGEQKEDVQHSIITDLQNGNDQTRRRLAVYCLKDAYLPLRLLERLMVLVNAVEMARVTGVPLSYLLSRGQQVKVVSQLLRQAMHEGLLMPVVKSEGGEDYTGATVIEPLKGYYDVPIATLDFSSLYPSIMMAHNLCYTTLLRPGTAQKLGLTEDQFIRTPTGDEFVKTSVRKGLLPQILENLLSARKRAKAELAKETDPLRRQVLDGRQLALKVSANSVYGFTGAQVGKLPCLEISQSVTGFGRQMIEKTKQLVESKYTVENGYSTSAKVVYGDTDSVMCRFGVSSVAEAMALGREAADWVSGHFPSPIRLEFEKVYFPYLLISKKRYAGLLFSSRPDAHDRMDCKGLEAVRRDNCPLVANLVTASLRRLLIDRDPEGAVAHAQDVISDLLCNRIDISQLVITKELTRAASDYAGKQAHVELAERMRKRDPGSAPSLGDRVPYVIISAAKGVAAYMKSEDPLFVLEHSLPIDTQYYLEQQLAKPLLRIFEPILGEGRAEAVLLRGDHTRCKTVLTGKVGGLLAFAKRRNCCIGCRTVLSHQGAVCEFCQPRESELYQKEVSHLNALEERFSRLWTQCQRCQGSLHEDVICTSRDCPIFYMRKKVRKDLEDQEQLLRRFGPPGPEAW
T1 sequence (P49005 whole entry partner): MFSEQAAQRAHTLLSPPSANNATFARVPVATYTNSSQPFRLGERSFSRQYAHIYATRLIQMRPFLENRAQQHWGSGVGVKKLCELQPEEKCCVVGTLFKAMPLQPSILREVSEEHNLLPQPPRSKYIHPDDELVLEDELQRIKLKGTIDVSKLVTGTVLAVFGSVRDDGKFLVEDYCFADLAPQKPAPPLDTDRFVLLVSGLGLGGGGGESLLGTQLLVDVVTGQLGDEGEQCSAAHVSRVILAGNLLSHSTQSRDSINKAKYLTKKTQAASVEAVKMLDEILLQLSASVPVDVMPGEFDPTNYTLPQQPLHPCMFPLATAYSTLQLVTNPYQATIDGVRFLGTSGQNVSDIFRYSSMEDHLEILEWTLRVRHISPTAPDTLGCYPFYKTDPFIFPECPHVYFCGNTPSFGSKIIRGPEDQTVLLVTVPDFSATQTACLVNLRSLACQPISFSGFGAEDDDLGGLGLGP
T1 sequence (Q15054 whole entry partner): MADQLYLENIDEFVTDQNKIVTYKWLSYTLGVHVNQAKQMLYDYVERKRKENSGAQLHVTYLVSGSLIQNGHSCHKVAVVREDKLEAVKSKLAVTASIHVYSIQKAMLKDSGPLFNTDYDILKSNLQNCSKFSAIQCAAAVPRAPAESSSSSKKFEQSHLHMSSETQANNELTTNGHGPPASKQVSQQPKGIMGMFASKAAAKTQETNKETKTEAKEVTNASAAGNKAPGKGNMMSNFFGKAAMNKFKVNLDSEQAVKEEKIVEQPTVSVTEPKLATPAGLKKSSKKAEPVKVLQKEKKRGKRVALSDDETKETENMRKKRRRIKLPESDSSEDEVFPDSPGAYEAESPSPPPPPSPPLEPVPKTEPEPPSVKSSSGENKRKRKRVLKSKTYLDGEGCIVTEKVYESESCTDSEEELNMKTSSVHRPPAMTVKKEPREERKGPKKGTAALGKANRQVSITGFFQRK
T1 sequence (P12004 whole entry partner): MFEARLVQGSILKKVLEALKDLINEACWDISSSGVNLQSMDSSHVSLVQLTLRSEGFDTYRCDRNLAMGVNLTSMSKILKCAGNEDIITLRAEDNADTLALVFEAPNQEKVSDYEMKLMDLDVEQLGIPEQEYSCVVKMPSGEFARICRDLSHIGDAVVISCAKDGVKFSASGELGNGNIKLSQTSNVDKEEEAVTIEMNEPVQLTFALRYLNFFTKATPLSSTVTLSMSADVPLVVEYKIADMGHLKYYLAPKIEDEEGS

For the compound `COC(=O)c1cc(-c2ccccc2)sc1NC(=S)NNC(=O)CCc1ccc(O)c(O)c1` [zelpolib], on Pol δ, the “full-length product (40 mer) formed” value is “barely detectible” and the primer unextended worked out at 94%. In the data set on BxPC-3 cells [1], the “EdU incorporation versus sham treatment” value is listed as “significant reduction of EdU incorporation”. For the same compound, the “inhibition of DNA fiber extension” value in the data set with BxPC-3 cells [2] (20 μM, 60 minutes exposure, cell line not stated) was “about 40%”. Besides, in the data set on BxPC-3 cells [2] (BxPC-3, zelpolib added with CldU for 60 min), the “inhibition of ongoing cellular DNA replication (green/red fiber length ratio)” value is “concentration dependent inhibition of ongoing cellular DNA replication”. Also, the cellular uptake time entry with BxPC-3 cells [2] (inferred from fiber inhibition at 20 μM with 60 minutes total exposure) was “less than 30 minutes”. For the same compound, the “inhibition of ongoing DNA replication (green/red fiber length ratio)” value in the data set with HCC1395 cells [3] is on record as “significant inhibition of ongoing DNA replication”. In addition, the “sensitisation of HCC1395 cells to Rucaparib” value in the data set with HCC1395 cells [4] (difference statistically significant up to 25 μM) was “behaved similarly to zelpolib and Niraparib combination”. Moreover, the “sensitisation of HCC1395 cells to Niraparib” value in the data set on HCC1395 cells [4] (differences significant up to 20 μM) was “increased the sensitivity of HCC1395 cells to Niraparib across the whole range of concentrations”.
